Measured values: patent US20180110762A1, “Compositions Methods for Treating Chronic Kidney Disease” (Merck Sharp & Dohme Corp, priority 2015, published 2018)
Marks after values point to notes of the source that are not given here.

Columns and labels:
Type in all cases: in vivo
[1] = ZSF1 rat 28-week in-feed study: body weight, food and water intake; conditions: obese ZSF1 rats, 10 mpk in-feed
Protocol: (§1) The effects of Compound A (“A”) on renal function, plasma triglycerides, plasma cholesterol, kidney collagen I, kidney collagen III, renal histology, glomerular filtration rate, fibrosis score, and mRNA gene expression (profibrotic genes and integrin β3) were evaluated in male obese ZSF1 rats (a hybrid F1 of Zucker diabetic fatty rat and spontaneously hypertensive heart failure rat; a diabetic nephropathy model) when administered as in-feed for 28 weeks. Sixty obese male ZSF1 rats were randomized to five groups: Obese control (n=12), Compound A 60 mpk (n=12), Compound A 200 mpk (n=12), Compound A 400 mpk (n=12), Enalapril 10 mpk (n=12); Eight lean male ZSF1 rats were used for normal control. Renal functional changes were monitored by blood and urine analysis following in-feed dosing for 28 weeks. Compound exposure was also monitored during the study.

[2] = test system: male obese ZSF1 rats (diabetic nephropathy model); assay: ZSF1 rat study: renal fibrosis score (histology); conditions: obese ZSF1 rats, 10 mpk in-feed, week 28
Protocol: as §1
Upon completion of the study, animals were euthanized and blood and organs (kidney, heart, aorta, eyes, and lumber vertebrae (LV1-LV5) and left femur) were collected for histology assessment (including EM for the kidneys) or DEXA scan (lumber vertebrae and left femur). Kidney tissues were fixed in 10% formalin and then paraffin embedded. Tissue sections were stained with hematoxylin and eosin (H&E), periodic acid-Schiff (PAS), and Masson's trichrome and evaluated under light microscope. The severity of histopathologic changes in renal tubules, interstitium, vasculature, and glomeruli were graded on a 1 to 5 scale corresponding to minimal, mild, moderate, marked, and severe as described previously. Sections from both kidneys were examined. Collagen deposition in the kidney was graded on a 1 to 5 scale corresponding to minimal, mild, moderate, marked, and severe, based on the blue stained area size and intensity.

[3] = test system: male obese ZSF1 rats (diabetic nephropathy model); assay: ZSF1 rat 28-week in-feed study: urinary protein (UPCR, 24 h excretion); conditions: obese ZSF1 rats, 10 mpk in-feed
Protocol: as §1

[4] = test system: male obese ZSF1 rats (diabetic nephropathy model); assay: ZSF1 rat study: plasma triglyceride and cholesterol; conditions: obese ZSF1 rats, 10 mpk in-feed; for plasma cholesterol levels: in mg/dL (unit assumed)
Protocol: as §1

[5] = test system: male obese ZSF1 rats (diabetic nephropathy model); assay: ZSF1 rat study: kidney collagen I and III immunostaining; conditions: obese ZSF1 rats, 10 mpk in-feed, week 28
Protocol: as §1
Following deparaffinization and rehydration, each kidney tissue section was processed to identify collagen I and III deposition. The primary antibodies used were rabbit anti-type I collagen polyclonal antibody (Abcam, Cambridge, Mass.) diluted at 2 ug/ml, and rabbit anti-type III collagen polyclonal antibody (Lifespan, Seattle, Wash.) at 3 ug/ml. The signal was developed by using Super PicTure HRP Polymer Rabbit Primary kit (Invitrogen) and the slides were counterstained with hematoxylin. The Aperio ScanScope XT Slide Scanner (Aperio Technologies, Vista, Calif.) system was used to capture whole slide digital images with a 20× objective. Digital images were managed using Aperio Spectrum. The positive stains were identified and quantified using a macro created from a color deconvolution algorithm (Aperio Technologies, Vista, Calif.).

[6] = test system: male obese ZSF1 rats (diabetic nephropathy model); assay: ZSF1 rat study: GFR measurement by FITC-sinistrin clearance; conditions: obese ZSF1 rats, 10 mpk in-feed, week 28
Protocol: as §1
For the measurement of GFR, a miniaturized device (NIC-Kidney, Mannheim Pharma & Diagnostics, Mannheim, Germany) was used. In brief, the device (batteries, diodes, and microprocessor) containing an optical component was affixed on a depilated region of the back using a double-sided sticky patch (Lohmann GmbH KG, 56567, Neuwied, Germany) under isofluorane anesthesia (3% isoflurane mixed with oxygen). After a resting baseline period of 1-1.5 minutes, a bolus of FITC-sinistrin (5 mg/100 g body weight, dissolved in 0.5 mL sterile isotonic saline) was injected through the tail vein. The rat was then placed in a clean cage for recovery from anesthesia to responsible ambulation. […] The excretion kinetics of FITC-sinistrin was determined using a sampling rate of 60 measurements per minute with an excitation time of 10 milliseconds per measurement for 120 minutes after the injection. One compartment model was used for FITC-sinistrin clearance. After completion of GFR measurement, the device was gently removed from the skin and the rat returned to its home cage.

[7] = test system: male obese ZSF1 rats (diabetic nephropathy model); assay: ZSF1 rat study: kidney mRNA expression of profibrotic genes and integrin beta3; conditions: obese ZSF1 rats, 10 mpk in-feed, week 28
Protocol: as §1

Compound: CCOC(=O)[C@H](CCc1ccccc1)N[C@@H](C)C(=O)N1CCC[C@H]1C(=O)O [Enalapril, reference compound]
- Body Weight ([1]; week 1): 570.2 ± 10.3 grams
- Food Intake ([1]; week 1): 30.1 ± 1.3 grams/24 h
- Water Intake ([1]; week 1): 50.2 ± 6.2 mls/24 h
- Body Weight ([1]; week 2): 578.3 ± 11.2 grams
- Food Intake ([1]; week 2): 31.7 ± 1.4 grams/24 h
- Water Intake ([1]; week 2): 55.0 ± 5.2 mls/24 h
- Body Weight ([1]; week 4): 585.7 ± 11.1 grams
- Food Intake ([1]; week 4): 33.1 ± 1.0 grams/24 h
- Water Intake ([1]; week 4): 56.6 ± 6.0 mls/24 h
- Body Weight ([1]; week 6): 606.1 ± 11.6 grams
- Food Intake ([1]; week 6): 33.1 ± 1.0 grams/24 h
- Water Intake ([1]; week 6): 61.7 ± 5.5 mls/24 h
- Body Weight ([1]; week 8): 623.8 ± 13.3 grams
- Food Intake ([1]; week 8): 35.1 ± 1.5 grams/24 h
- Water Intake ([1]; week 8): 85.4 ± 7.4 mls/24 h
- Body Weight ([1]; week 10): 637.2 ± 14.1 grams
- Body Weight ([1]; week 12): 655.6 ± 14.2 grams
- Food Intake ([1]; week 12): 36.6 ± 1.5 grams/24 h
- Water Intake ([1]; week 12): 91.7 ± 7.5 mls/24 h
- Body Weight ([1]; week 14): 658.1 ± 16.2 grams
- Body Weight ([1]; week 16): 671.1 ± 16.8 grams
- Food Intake ([1]; week 16): 33.3 ± 1.6 grams/24 h
- Water Intake ([1]; week 16): 83.3 ± 8.3 mls/24 h
- Body Weight ([1]; week 18): 682.1 ± 16.4 grams
- Body Weight ([1]; week 21): 709.5 ± 18.0 grams
- Food Intake ([1]; week 21): 37.7 ± 1.6 grams/24 h
- Water Intake ([1]; week 21): 75.8 ± 5.9 mls/24 h
- Body Weight ([1]; week 24): 733.7 ± 20.2 grams
- Food Intake ([1]; week 24): 35.5 ± 1.3 grams/24 h
- Water Intake ([1]; week 24): 89.7 ± 7.9 mls/24 h
- Body Weight ([1]; week 28): 753.7 ± 21.8 grams
- Food Intake ([1]; week 28): 33.6 ± 1.5 grams/24 h
- Water Intake ([1]; week 28): 68.0 ± 6.5 mls/24 h
- Body Weight ([1]; week −2): 522.2 ± 10.2 grams
- Food Intake ([1]; week −2): 37.5 ± 1.5 grams/24 h
- Water Intake ([1]; week −2): 68.1 ± 4.9 mls/24 h
- renal fibrosis score (expressed as 0-5) [2]: 2.0 ± 0.1
- 24 h Urinary Protein Excretion ([3]; week 1): 73.9 ± 3.8 mg/24 h
- UPCR (urinary protein/creatinine ratio) ([3]; week 1): 6.3 ± 0.3 mg/mg
- 24 h Urinary Protein Excretion ([3]; week 2): 91.2 ± 4.9 mg/24 h
- UPCR (urinary protein/creatinine ratio) ([3]; week 2): 7.4 ± 0.4 mg/mg
- 24 h Urinary Protein Excretion ([3]; week 4): 96.1 ± 5.1 mg/24 h
- UPCR (urinary protein/creatinine ratio) ([3]; week 4): 8.0 ± 0.4 mg/mg
- 24 h Urinary Protein Excretion ([3]; week 6): 92.2 ± 6.0 mg/24 h
- UPCR (urinary protein/creatinine ratio) ([3]; week 6): 7.3 ± 0.4 mg/mg
- 24 h Urinary Protein Excretion ([3]; week 8): 135.3 ± 10.2 mg/24 h
- UPCR (urinary protein/creatinine ratio) ([3]; week 8): 10.2 ± 0.6 mg/mg
- 24 h Urinary Protein Excretion ([3]; week 12): 234.8 ± 16.4 mg/24 h
- UPCR (urinary protein/creatinine ratio) ([3]; week 12): 17.1 ± 0.9 mg/mg
- 24 h Urinary Protein Excretion ([3]; week 16): 252.2 ± 21.1 mg/24 h
- UPCR (urinary protein/creatinine ratio) ([3]; week 16): 14.0 ± 0.7 mg/mg
- 24 h Urinary Protein Excretion ([3]; week 21): 274.5 ± 16.8 mg/24 h
- UPCR (urinary protein/creatinine ratio) ([3]; week 21): 15.6 ± 0.6 mg/mg
- 24 h Urinary Protein Excretion ([3]; week 24): 289.4 ± 16.5 mg/24 h
- UPCR (urinary protein/creatinine ratio) ([3]; week 24): 16.6 ± 0.8 mg/mg
- 24 h Urinary Protein Excretion ([3]; week 28): 309.6 ± 15.8 mg/24 h
- UPCR (urinary protein/creatinine ratio) ([3]; week 28): 19.5 ± 0.8 mg/mg
- 24 h Urinary Protein Excretion ([3]; week −2): 132.9 ± 9.9 mg/24 h
- UPCR (urinary protein/creatinine ratio) ([3]; week −2): 10.8 ± 0.8 mg/mg
- Plasma Triglyceride ([4]; week 2): 2979.8 ± 161.7 mg/dL
- plasma cholesterol levels ([4]; week 2): 220.9 ± 5.9
- Plasma Triglyceride ([4]; week 4): 3212.4 ± 137.6 mg/dL
- plasma cholesterol levels ([4]; week 4): 251.1 ± 7.4
- Plasma Triglyceride ([4]; week 6): 2866.6 ± 145.5 mg/dL
- plasma cholesterol levels ([4]; week 6): 232.5 ± 6.0
- Plasma Triglyceride ([4]; week 8): 3770.3 ± 280.6 mg/dL
- plasma cholesterol levels ([4]; week 8): 294.3 ± 6.7
- Plasma Triglyceride ([4]; week 12): 3298.3 ± 221.4 mg/dL
- plasma cholesterol levels ([4]; week 12): 290.2 ± 7.6
- Plasma Triglyceride ([4]; week 16): 3554.6 ± 186.3 mg/dL
- plasma cholesterol levels ([4]; week 16): 319.3 ± 9.9
- Plasma Triglyceride ([4]; week 21): 3224.3 ± 240.5 mg/dL
- plasma cholesterol levels ([4]; week 21): 321.1 ± 11.3
- Plasma Triglyceride ([4]; week 24): 3180.2 ± 204.5 mg/dL
- plasma cholesterol levels ([4]; week 24): 354.3 ± 12.5
- Plasma Triglyceride ([4]; week 28): 2855.1 ± 291.3 mg/dL
- plasma cholesterol levels ([4]; week 28): 368.8 ± 13.2
- Plasma Triglyceride ([4]; week −2): 2023.9 ± 82.1 mg/dL
- plasma cholesterol levels ([4]; week −2): 187.1 ± 5.4
- kidney collagen I protein levels [5]: 34.83 ± 0.71 % of area
- kidney collagen III protein levels [5]: 19.19 ± 0.90 % of area
- FITC-sinistrin clearance, % change of improvement compared to Obese Vehicle group [6]: 59.6%****
- Glomerular Filtration Rate [6]: 971.9 ± 53.3 uLs/Min/100 gm BW
- Collagen I (a1) expression in the kidney [7]: 0.54 ± 0.02
- Collagen III (a1) expression in the kidney [7]: 0.39 ± 0.02
- Integrin beta3 expression in the kidney [7]: 0.68 ± 0.03
- PAI-1 expression in the kidney [7]: 0.52 ± 0.04
